Here are results for 2 compounds from patent US20210261528A1, “SALTS OF (S)-(5-CYCLOBUTOXY-2-METHYL-6-(1-(PIPERIDIN-4-YL)-1H-PYRAZOL-4-YL)-3,4-DIHYDROQUINOLIN-1(2H)-YL)(CYCLOPROPYL)METHANONE AND SOLID FORMS THEREOF” (FORMA Therapeutics, Inc., priority 2018, published 2021).

Common to all, as to format: physicochemical
Series [1] can be described thus: Slurry conversion of Fumarate Forms A, B and C (Example 6, Table 11). Particulars: RT, about 4 days. How it is done:
Slurry conversion of Fumarate Forms A, B, and C was conducted in three different solvents.

A short description of series [2]: Hygroscopicity evaluation by Dynamic Vapor Sorption (DVS) with XRPD of the solids after DVS. How it is done:
Dynamic Vapor Sorption (DVS) was obtained using a Surface Measurement Systems (SMS) DVS Intrinsic. The relative humidity at 25° C. were calibrated against deliquescence point of LiCl, Mg (NO3)2 and KCl.

Series [3] in a line: Aqueous solubility evaluation of Compound 1 salt forms (Example 5, Table 10). On the procedure:
For each of the experiments 1 through 5 in Table 10, about 100 mg of solid form was suspended in 1.5 mL of water, and the vial was rolled at RT for about 24 hours (25 r/min). […] Supernatant of experiment 3 was collected by filtration through a 0.45 μm membrane for HPLC analysis. For each of the experiments 6 through 10 in Table 10, about 40 mg of solid form was dissolved in 0.2 mL (0.9 mL for experiment 7) water and then analyzed by HPLC after 24-hour storage at RT.

A short description of series [4]: Chemical stability by HPLC-UV at 275 nm and 254 nm (Table 9). How it is done: High Pressure Liquid Chromatography (HPLC) data were obtained according to Tables 6 or 7, below:
A standard stock was dissolved with diluent in a volumetric flask (e.g., 25 mg in 25 mL). This stock was vortexed and sonicated 10 sec to dissolve, and then diluted 1:10, 1:4, and 1:2 either in volumetric flasks or in HPLC vials to generate a standard curve. […] Where appropriate, a blank was created to accurately replicate the matrix of the analytical sample, and peaks appearing in the blank were identified before integration and quantification using Chemstation software.
The chemical stability of Succinate Form A was determined using HPLC-UV at 275 nm and 254 nm.
The chemical stability of Form G was determined using HPLC-UV at 275 nm and 254 nm.

Structures are written as SMILES. Some results are limits rather than exact numbers.

As for `C[C@H]1CCc2c(ccc(-c3cnn(C4CCNCC4)c3)c2OC2CCC2)N1C(=O)C1CC1.O=C(O)/C=C/C(=O)O` [Fumarate Type A, B and C], the “Solid form after slurry conversion” value is “Fumarate Form A” in series [1] (ACN), “Fumarate Form B” in series [1] (Acetone) and “Fumarate Form C” in series [1] (EtOAc).

In the case of `C[C@H]1CCc2c(ccc(-c3cnn(C4CCNCC4)c3)c2OC2CCC2)N1C(=O)C1CC1.O=C(O)CCC(=O)O` [Succinate Form A, (S)-(5-cyclobutoxy-2-methyl-6-(1-(piperidin-4-yl)-1H-pyrazol-4-yl)-3,4-dihydroquinolin-1(2H)-yl)(cyclopropyl)methanone succinate], in series [2] (>60% RH, 25° C.), the “behaviour at high humidity (DVS)” value was “deliquescent”. Moreover, the “solid form after the DVS test” value in series [2] (XRPD of solids after DVS, succinate) was “amorphous or jelly solids”. Besides, the solubility in water in series [3] was over 100 mg FB/mL. In addition, the “chemical degradation by HPLC-UV” value in series [4] (after 42 days at 25° C./60% RH) is recorded as “did not show significant chemical degradation”; in series [4] (after 42 days at temperatures below 40° C.), “no significant chemical degradation”.
